Key:
Format in all cases: in vivo
Brassica kaber [1] = assay: Experiment 3: glasshouse, post-emergence, fresh weight after 19 days, % inhibition of growth; details: 2 leaves; for inhibition at 2 g/ha / inhibition at 4 g/ha / inhibition at 8 g/ha / inhibition at 16 g/ha / inhibition at 31 g/ha / inhibition at 63 g/ha: Mutarda arvensis, post-emergence
Experimental: (§1) A series of experiments was carried out to determine the nature of the biological interaction between atrazine and five compounds of general formula I on a range of weed species. […] The growth stages of the plants at spraying are also presented with the results. Agricultural surfactant (nonyl phenol ethylene oxide condensate containing 9 moles ethylene oxide marketed as 'Agral') was added to all spray dilutions to give 0.2% v/v concentration. […] After 19 days the fresh weight of vegetation in each pot was determined. […] E = […]00003:character} where E, X and Y are percentage inhibition of growth. In addition, the ED50 or ED90 values (the application rates giving 50% or 90% inhibition of growth, respectively) were calculated from the results for the piperidinedione alone and with increasing rates of atrazine.

Amaranthus retroflexus = assay: as above; details: 2 leaves; for inhibition at 2 g/ha / inhibition at 4 g/ha / inhibition at 8 g/ha / inhibition at 16 g/ha / inhibition at 31 g/ha / inhibition at 63 g/ha: Amaranthus retroflexus, post-emergence
Experimental: as §1

Sida spinosa = assay: Experiment 4: glasshouse, pre-emergence, fresh weight after 27 days, % inhibition of growth; details: for % inhibition of growth: Atrazine 0 g/ha
Experimental: (§2) Glasshouse experiments showing the biological interaction between atrazine and Compound 99 on weed species when applied pre-emergence. […] After 27 days the fresh weight of vegetation in each pot was determined. […] E = […]00005:character} where E, X and Y are percentage inhibition of growth. In addition the ED90 values (the application rate giving 90% inhibition of growth) were calculated from the results for Compound 99 alone and with increasing rates of atrazine. The ED90 values were then used to plot an isobole for each species according to the method of […] op cit. The results of percentage inhibition of growth, the ED values calculated from them and the calculated expected values are given in Table 8.

Brassica kaber [2] = assay: as above; details: for % inhibition of growth: Atrazine 0 g/ha
Experimental: as §2

Solanum nigrum = assay: Experiment 3: glasshouse, post-emergence, fresh weight after 19 days, % inhibition of growth; details: for inhibition at 2 g/ha / inhibition at 4 g/ha / inhibition at 8 g/ha / inhibition at 16 g/ha / inhibition at 31 g/ha / inhibition at 63 g/ha: Solanum nigrum, post-emergence
Experimental: as §1

[3] = system: Brachiaria plantaginea (BRAPL); assay: Experiment 1: field experiment, post-emergence spray, % control 29 days after application
Experimental: (§3) Duplicate 12m² plots were sprayed post-emergence with 250g or 500g/ha Compound 1 (in a composition according to Example 1 as described hereinafter) or 1500g/ha atrazine (in a commercial aqueous suspension concentrate formulation containing 500g/l w/v atrazine or a combination (as a tank mix) of the two herbicides in a volume of 300 litres/ha. The following control figures were recorded on the grass weeds Brachiaria plantaginea (BRAPL), Digitaria horizontalis (DIGHO) and Eleusine indica (ELEIN) 29 days after application.

Eleusine indica (ELEIN) = assay: as above
Experimental: as §3

[4] = system: Digitaria horizontalis (DIGHO); assay: as above
Experimental: as §3

CC1(C)CC(=O)C(C(=O)c2ccc(C(F)(F)F)cc2[N+](=O)[O-])C(=O)N1 (stereo not drawn) [Compound 99, 3-(2-nitro-4-trifluoromethylbenzoyl)-6,6-dimethylpiperidine-2,4-dione]
ED₉₀ (Brassica kaber [1]; Compound 99 alone): ED₉₀(g/ha) 31 | inhibition at 2 g/ha (Brassica kaber [1]; Compound 99 2 g/ha alone): 22% | inhibition at 4 g/ha (Brassica kaber [1]; Compound 99 4 g/ha alone): 40% | inhibition at 8 g/ha (Brassica kaber [1]; Compound 99 8 g/ha alone): 69% | inhibition at 16 g/ha (Brassica kaber [1]; Compound 99 16 g/ha alone): 58% | inhibition at 31 g/ha (Brassica kaber [1]; Compound 99 31 g/ha alone): 91% | inhibition at 63 g/ha (Brassica kaber [1]; Compound 99 63 g/ha alone): 91% | inhibition at 2 g/ha (Amaranthus retroflexus; Compound 99 2 g/ha alone): 37% | inhibition at 4 g/ha (Amaranthus retroflexus; Compound 99 4 g/ha alone): 85% | inhibition at 8 g/ha (Amaranthus retroflexus; Compound 99 8 g/ha alone): 88% | inhibition at 16 g/ha (Amaranthus retroflexus; Compound 99 16 g/ha alone): 80% | inhibition at 31 g/ha (Amaranthus retroflexus; Compound 99 31 g/ha alone): 91% | inhibition at 63 g/ha (Amaranthus retroflexus; Compound 99 63 g/ha alone): 98% | ED₉₀ (Amaranthus retroflexus; Compound 99 alone): ED₉₀(g/ha) 14 | % inhibition of growth (Sida spinosa; Compound 99 8 g/ha): 0% | % inhibition of growth (Sida spinosa; Compound 99 16 g/ha): 17% | % inhibition of growth (Sida spinosa; Compound 99 31 g/ha): 26% | % inhibition of growth (Sida spinosa; Compound 99 63 g/ha): 52% | % inhibition of growth (Sida spinosa; Compound 99 125 g/ha): 88% | % inhibition of growth (Sida spinosa; Compound 99 250 g/ha): 97% | ED₉₀ (Sida spinosa; Compound 99 alone): ED₉₀(g/ha) 146.26 | % inhibition of growth (Brassica kaber [2]; Compound 99 8 g/ha): 0% | % inhibition of growth (Brassica kaber [2]; Compound 99 16 g/ha): 9% | % inhibition of growth (Brassica kaber [2]; Compound 99 31 g/ha): 10% | % inhibition of growth (Brassica kaber [2]; Compound 99 63 g/ha): 32% | % inhibition of growth (Brassica kaber [2]; Compound 99 125 g/ha): 20% | % inhibition of growth (Brassica kaber [2]; Compound 99 250 g/ha): 90% | ED₉₀ (Brassica kaber [2]; Compound 99 alone): ED₉₀(g/ha) 340.34

CS(=O)(=O)c1ccc(C(=O)C2C(=O)CCNC2=O)c(Cl)c1 (stereo not drawn) [Compound 126, 3-(2-chloro-4-methylsulphonylbenzoyl)piperidine-2,4-dione]
ED₅₀ (Brassica kaber [1]; Compound 126 alone): ED₅₀(g/ha) 28.09 | inhibition at 2 g/ha (Brassica kaber [1]; Compound 126 2 g/ha alone): 0% | inhibition at 4 g/ha (Brassica kaber [1]; Compound 126 4 g/ha alone): 0% | inhibition at 8 g/ha (Brassica kaber [1]; Compound 126 8 g/ha alone): 0% | inhibition at 16 g/ha (Brassica kaber [1]; Compound 126 16 g/ha alone): 42% | inhibition at 31 g/ha (Brassica kaber [1]; Compound 126 31 g/ha alone): 69% | inhibition at 63 g/ha (Brassica kaber [1]; Compound 126 63 g/ha alone): 66% | ED₉₀ (Solanum nigrum; Compound 126 alone, 2 leaves): ED₉₀(g/ha)4.18 | inhibition at 2 g/ha (Solanum nigrum; Compound 126 2 g/ha alone, 2 leaves): 72% | inhibition at 4 g/ha (Solanum nigrum; Compound 126 4 g/ha alone, 2 leaves): 90% | inhibition at 8 g/ha (Solanum nigrum; Compound 126 8 g/ha alone, 2 leaves): 97% | inhibition at 16 g/ha (Solanum nigrum; Compound 126 16 g/ha alone, 2 leaves): 100% | inhibition at 31 g/ha (Solanum nigrum; Compound 126 31 g/ha alone, 2 leaves): 100% | inhibition at 63 g/ha (Solanum nigrum; Compound 126 63 g/ha alone, 2 leaves): 100%

CC1(C)CC(=O)C(C(=O)c2ccc(Cl)cc2[N+](=O)[O-])C(=O)N1 (stereo not drawn) [Compound 1, 3-(4-chloro-2-nitrobenzoyl)-6,6-dimethylpiperidine-2,4-dione]
inhibition at 2 g/ha (Amaranthus retroflexus; Compound 1 2 g/ha alone): 25% | inhibition at 4 g/ha (Amaranthus retroflexus; Compound 1 4 g/ha alone): 52% | inhibition at 8 g/ha (Amaranthus retroflexus; Compound 1 8 g/ha alone): 73% | inhibition at 16 g/ha (Amaranthus retroflexus; Compound 1 16 g/ha alone): 87% | inhibition at 31 g/ha (Amaranthus retroflexus; Compound 1 31 g/ha alone): 95% | inhibition at 63 g/ha (Amaranthus retroflexus; Compound 1 63 g/ha alone): 96% | ED₉₀ (Amaranthus retroflexus; Compound 1 alone): ED₉₀(g/ha) 22.58 | % control observed ([3]; Compound 1 @ 250g/ha): 60% | % control observed ([3]; Compound 1 @ 500g/ha): 80% | % control observed (Eleusine indica (ELEIN); Compound 1 @ 250g/ha): 70% | % control observed (Eleusine indica (ELEIN); Compound 1 @ 500g/ha): 80% | % control observed ([4]; Compound 1 @ 250g/ha): 70% | % control observed ([4]; Compound 1 @ 500g/ha): 80%

CS(=O)(=O)c1ccc(C(=O)C2C(=O)CCNC2=O)c([N+](=O)[O-])c1 (stereo not drawn) [Compound 110, 3-(4-methylsulphonyl-2-nitrobenzoyl)piperidine-2,4-dione]
ED₉₀ (Brassica kaber [1]; Compound 110 alone): ED₉₀(g/ha) 6.38 | inhibition at 2 g/ha (Brassica kaber [1]; Compound 110 2 g/ha alone): 45% | inhibition at 4 g/ha (Brassica kaber [1]; Compound 110 4 g/ha alone): 84% | inhibition at 8 g/ha (Brassica kaber [1]; Compound 110 8 g/ha alone): 98% | inhibition at 16 g/ha (Brassica kaber [1]; Compound 110 16 g/ha alone): 99% | inhibition at 31 g/ha (Brassica kaber [1]; Compound 110 31 g/ha alone): 100% | inhibition at 63 g/ha (Brassica kaber [1]; Compound 110 63 g/ha alone): 100% | ED₉₀ (Solanum nigrum; Compound 110 alone, 1 leaf): ED₉₀(g/ha) 5.87 | inhibition at 2 g/ha (Solanum nigrum; Compound 110 2 g/ha alone, 1 leaf): 38% | inhibition at 4 g/ha (Solanum nigrum; Compound 110 4 g/ha alone, 1 leaf): 80% | inhibition at 8 g/ha (Solanum nigrum; Compound 110 8 g/ha alone, 1 leaf): 98% | inhibition at 16 g/ha (Solanum nigrum; Compound 110 16 g/ha alone, 1 leaf): 100% | inhibition at 31 g/ha (Solanum nigrum; Compound 110 31 g/ha alone, 1 leaf): 100% | inhibition at 63 g/ha (Solanum nigrum; Compound 110 63 g/ha alone, 1 leaf): 100%

Reference: EP0354047A2, “Herbicidal method using atrazine” (MAY & BAKER LIMITED, priority 1988, dated 1990)
